Measured values from patent US7968575B2, “Nitric oxide donors and uses thereof” (priority 2004, dated 2011).
Entries after “also recorded” stand apart in the source; their conditions may differ.

Legend:
c-GMP [1] = assay: Cyclic-GMP measurement in aortic rat tissue (radioimmunoassay); format: cell-based; settings: isolated rat aorta, FIGS. 25, 27 and 33; in words
Description: GTN (10^−6 M) was added to the chamber and, 1 minute after exposure to the drug, rings (usually 3-5) were taken, wrapped with aluminum foil and immediately frozen in liquid nitrogen for storage. Control sample group was treated with the vehicle solution only. At the time of analysis, rings were thawed, blotted over a dry gauzed and weighted. A known weight of tissue was homogenized in 2 ml ice-cold modified Hank's balanced salt solution containing (in gram/liter) NaCl 8; KCl 0.4; glucose 1; KH2PO4 0.06; Na2HPO4 0.047; Phenol red 0.017 and further containing 25 mM EDTA (disodium salt). The homogenate was centrifuged at 4000 g (force units) for 10 minutes at 2-4° C. and the supernatant was thereafter transferred into fresh pre-cooled test tube containing 1 ml of acetonitrile. The tubes were vortex mixed for a few seconds and subsequently centrifuged at 4000 g for 5 minutes at 2-4° C., to remove the precipitated protein. Each supernatant was transferred into a clean test tube and evaporated to dryness under a stream of nitrogen at 55° C. The dry residue was reconstituted with 10 volumes of Tris-EDTA buffer pH 7.5 (0.05 M Tris containing 4 mM EDTA). Aliquots of 100 μl of the reconstituted solution in duplicate were used for c-GMP measurements using Amersham RIA kit, as is described in Haj-Yehia & Benet [Pharmacology, 1995, 273, 1, pp. 94-100]. Standard curves were plotted with six concentrations (0, 0.5, 1, 2, 4 and 8 pmoles of c-GMP per tube).
The NO-tolerance effect of GTN and NO-donor compounds according to the present invention was measured by following the production of c-GMP in slices of thoracic aorta of rats. Thus, the production of c-GMP was measured as described in the methods section above for the reference NO-donor compound GTN, and for the NO-donors of the present invention Pet-2, Pet-3, Pet-7, Pet-8, Pet-10, Pet-12, Pet-24, Pet-59, Pet-147, Pet-149, Pet-152, Pet-154 and Pet-155.

isolated rat aorta [2] = assay: In vitro vasorelaxation of epinephrine-contracted rat aortic rings (cumulative concentration-response curves); format: cell-based; settings: isolated rat aorta pre-treated in vitro with 1 μM epinephrine; in words
Description: Male Sprague Dawley rats were anaesthetized using intraperitoneal injection of ketamine and xylazine (50 and 10 milligram per kilogram, respectively) and the thoracic aorta, the large upper portion of the descending aorta, starting at the caudal border of the chest bone, was removed thereafter, while carefully removing the paraadventetial tissue surrounding the vessel. Aortae were cut into rings of 4-5 millimeters and mounted onto the tissue path. The path buffer (Krebs-bicrbonate) was constantly gassed with carbogen and maintained at 37° C. The rings were preloaded under 2 g tension and equilibrated for 90 minutes, while refreshing the buffer every 15 minutes. After stabilization, the rings were contracted with epinephrine (1 μM). Cumulative Concentration-Response Curves (CCRC) were measured for the vasorelaxing effect induced by adding various concentrations, ranging from 10^−10 M to 10^−5 M of Pet-2, Pet-3, Pet-7, Pet-8, Pet-12, Pet-24, Pet-43, Pet-59, Pet-147, Pet-152 and Pet-154, and glyceryltrinitrate (GTN), according to the procedure described in Feelich et al., Molecular Pharmacology, 56:243-253 (1999). The vehicle, which was used for this experiment was water:ethanol:propyleneglycol at proportional ratio of 1:1:1.
The vasorelaxing effect of the thiazole-derived NO-donors according to the present invention was measured on slices of thoracic aorta of rats contracted with epinephrine, as described hereinabove.

c-GMP [3] = assay: Induction of in vivo nitrate tolerance (cGMP in aorta isolated after 16 hour infusion); set-up: species or system rat; settings: in words; for tolerance induction in vivo: cGMP accumulation in isolated aorta of rats pre-treated in vivo with the compound
Description: For c-GMP levels and tolerance development, the rat's thoracic aorta was isolated after exposure to the tested compound in vivo, and measured as described above in the in vitro assays.
Male Sprague Dawley rats (220 to 250 grams) were housed under constant temperature and humidity conditions. Light was maintained at a 12/12 light dark cycle. Except for 12 hours before the experiment, when food fasting was initiated, all rats had free access to standard rat pellet diet and tap water. The animals were anesthetized by intraperitoneal injection of ketamine and xylazine combination (50 and 10 milligram per kilogram, respectively). […] The catheters were filled with normal saline solution containing 1000 IU/ml of heparin and plugged with a metal pin. Catheters were externalized to the back of the neck region and secured by a polyester felt disk.
After implantation, the rats were individually housed until they regained their preoperative weight and appeared healthy (3 to 4 days post-operation). At this time point (day 0), an osmotic mini-pump (Alza Corp., Palo Alto, Calif.) delivering constant volume (10 μl/hour) of vehicle or drug was connected to one of the intravenous catheters.
For inducing tolerance to the tested NO-donor according to the present invention, the animals received 200 μg/hour of the tested compound for 16 hours (short-term-induced tolerance). A similar number of animals were processed by the same surgical procedure and received the vehicle alone (10 μl/hour of a solution consisting of 30% ethanol and 30% propylene glycol in sterile distilled water for injection).
At the end of the infusion periods used for the development of tolerance (16 hour), the rats were anesthetized as described above, the two catheters were externalized and the delivering catheters were disconnected from the mini-pump. The abdomen was opened by midline incision and the thoracic aorta were isolated, washed and cleaned from the surrounding tissues. Strips of the treated aortas were pooled in chambers containing Krebs-Hanseliet buffer (10 ml), and exposed to 1 μM of the tested NO-donor (final concentration) for 120 seconds. The tissues were quickly collected and frozen in liquid nitrogen for cGMP measurement, described hereinabove.

isolated rat aorta [4] = assay: In vitro induction of tolerance: vasorelaxation of aortic rings pre-exposed to the NO-releasing compound; format: cell-based; settings: vasorelaxation in rings pre-treated with 0.44 mM of the compound versus control rings; in words
Description: Aortic rings were prepared as described hereinabove, and were exposed to 0.44 mM GTN (vehicle was water:ethanol:propyleneglycol at proportional ratio of 1:1:1) for 1 hour before CCRC construction, to thereby induce tolerance to nitroglycerine. At the end of the tolerance induction period, rings were thrice washed with the path buffer (Krebs-bicrbonate) every 15 minutes for the following hour and then CCRC for vasorelaxation on GTN-induced tolerance rings were constructed for GTN (pretreated versus untreated rings, FIG. 15), in order to verify the ability to induce and measure GTN tolerance induction in vitro
Attempted induction of tolerance to the NO-donating compounds of the present invention was performed under the same conditions as for GTN. Thus, in an exemplary experiment, rings were exposed to 0.44 mM solution of Pet-3 in the attempt to induce tolerance for Pet-3. CCRC were then measured for the vasorelaxing effect of Pet-3 on a group of rings which were pre-exposed to Pet-3 as to induce tolerance to Pet-3, and for an untreated control group. The above protocol was repeated with Pet-2, Pet-7, Pet-8, Pet-12, Pet-24, Pet-43, Pet-149 and Pet-152.

isolated rat aorta [5] = assay: Cross-tolerance studies on aortic rings (GTN / Pet-12 pre-treatment); format: cell-based; settings: in words
Description: Cross-tolerance studies were conducted using the same technique described above for measuring vasorelaxation of aortic rings from rats. Two groups of aortic rings samples were pre-treated with GTN, then one group was measured for vasorelaxation by GTN and the second group for vasorelaxation by Pet-12, an exemplary NO-donor according to the present invention. For the opposite cross-tolerance studies, two groups of aortic rings samples were pre-treated with Pet-12, then one group was measured for vasorelaxation by GTN and the second group for vasorelaxation by Pet-12.

Cc1nc(NC(=O)[C@@H](C)c2ccc(CC(C)C)cc2)sc1CCO[N+](=O)[O-] (stereo in doubt) [Pet-152, 2-(4-Isobutyl-phenyl)-N-[4-methyl-5-(2-nitrooxy-ethyl)-thiazol-2-yl]-propionamide]
levels of cGMP as compared with GTN (c-GMP [1]): increased levels of cGMP
vasorelaxation effect as compared with glyceryltrinitrate (isolated rat aorta [2]): superior

CCc1nc(C)c(CCO[N+](=O)[O-])s1 [Pet-2, 2-Ethyl-4-methyl-5-(2-nitrooxy-ethyl)-thiazole]
vasorelaxation effect as compared with glyceryltrinitrate (isolated rat aorta [2]): superior
level of cGMP following a repeated treatment in vivo (c-GMP [3]; aorta of rats infused 200 μg/hour for 16 hours, then exposed to 1 μM compound for 120 seconds): remained substantially unchanged
tolerance induction in vivo (c-GMP [3]): absence of tolerance induction; also recorded: absence of tolerance effect

Cc1nc(C)c(CCO[N+](=O)[O-])s1 [Pet-3, 2,4-Dimethyl-5-(2-nitrooxy-ethyl)-thiazole]
levels of cGMP as compared with GTN (c-GMP [1]): increased levels of cGMP
vasorelaxation effect as compared with glyceryltrinitrate (isolated rat aorta [2]): superior
tolerance induction in vitro (isolated rat aorta [4]): absence of tolerance induction

Cc1nc(N(C)C)sc1CCO[N+](=O)[O-] [Pet-7, Dimethyl-[4-methyl-5-(2-nitrooxy-ethyl)-thiazol-2-yl]-amine]
levels of cGMP as compared with GTN (c-GMP [1]): increased levels of cGMP
tolerance induction in vitro (isolated rat aorta [4]): absence of tolerance induction

Cc1nc(-c2ccccc2)sc1CCO[N+](=O)[O-] [Pet-8, 4-Methyl-5-(2-nitrooxy-ethyl)-2-phenyl-thiazole]
levels of cGMP as compared with GTN (c-GMP [1]): increased levels of cGMP
vasorelaxation effect as compared with glyceryltrinitrate (isolated rat aorta [2]): superior

Cc1nc(N)sc1CCO[N+](=O)[O-] [Pet-10, 4-methyl-5-(2-nitrooxy-ethyl)-thiazole-2-ylamine]
levels of cGMP as compared with GTN (c-GMP [1]): increased levels of cGMP

Cc1nc(-c2cccnc2)sc1CCO[N+](=O)[O-] [Pet-12, 3-[4-Methyl-5-(2-nitrooxy-ethyl)-thiazole-2-yl]-pyridine]
tolerance induction in vitro (isolated rat aorta [4]): absence of tolerance induction
tolerance induction in vivo (c-GMP [3]): absence of tolerance induction; also recorded: absence of tolerance effect; also recorded: lack of tolerance induction
vasorelaxation in GTN-tolerant rings (cross-tolerance) (isolated rat aorta [5]; aortic rings pre-treated with epinephrine and then with GTN): absence of tolerance induction effect; also recorded: has no effect on the vasorelaxation capacity
tolerance after pre-treatment with Pet-12 (to itself and to GTN) (isolated rat aorta [5]; aortic rings pre-treated with epinephrine and then with Pet-12): absence of tolerance induction effect; also recorded: does not evoke tolerance to itself not to GTN

CNc1cncc(-c2nc(C)c(CCO[N+](=O)[O-])s2)n1 [Pet-24, Methyl-{6-[4-methyl-5-(2-nitrooxy-ethyl)-thiazol-2-yl]-pyrazin-2-yl}-amine]
levels of cGMP as compared with GTN (c-GMP [1]): increased levels of cGMP
tolerance induction in vitro (isolated rat aorta [4]): absence of tolerance induction

Cc1nc(Nc2nc(C)c(CCO[N+](=O)[O-])s2)sc1CCO[N+](=O)[O-] [Pet-43, Bis-[4-methyl-5-(2-nitrooxy-ethyl)-thiazol-2-yl]-amine]
vasorelaxation effect as compared with glyceryltrinitrate (isolated rat aorta [2]): superior
tolerance induction in vitro (isolated rat aorta [4]): absence of tolerance induction

Cc1nc(-c2ccc(C(F)(F)F)cc2)sc1CCO[N+](=O)[O-] [Pet-59, 4-Methyl-5-(2-nitrooxy-ethyl)-2-(4-trifluoromethyl-phenyl)-thiazole]
levels of cGMP as compared with GTN (c-GMP [1]): increased levels of cGMP
vasorelaxation effect as compared with glyceryltrinitrate (isolated rat aorta [2]): superior

CCNc1nc(C)c(CCO[N+](=O)[O-])s1 [Pet-147, Ethyl-[4-methyl-5-(2-nitrooxy-ethyl)-thiazol-2-yl]-amine]
levels of cGMP as compared with GTN (c-GMP [1]): increased levels of cGMP

Cc1nc(Nc2cccc3ccccc23)sc1CCO[N+](=O)[O-] [Pet-149, [4-Methyl-5-(2-nitrooxy-ethyl)-thiazol-2-yl]-naphthalen-1-yl-amine]
levels of cGMP as compared with GTN (c-GMP [1]): increased levels of cGMP
vasorelaxation effect as compared with glyceryltrinitrate (isolated rat aorta [2]): superior
tolerance induction in vitro (isolated rat aorta [4]): absence of tolerance induction

Cc1nc(NC(=O)c2cccnc2)sc1CCO[N+](=O)[O-] [Pet-154, N-[4-methyl-5-(2-nitrooxy-ethyl)-thiazol-2-yl]-nicotinamide]
levels of cGMP as compared with GTN (c-GMP [1]): increased levels of cGMP

C=CCNc1nc(C)c(CCO[N+](=O)[O-])s1 [Pet-155, allyl-[4-methyl-5-(2-nitrooxy-ethyl)-thiazol-2-yl]-amine]
levels of cGMP as compared with GTN (c-GMP [1]): increased levels of cGMP
vasorelaxation effect as compared with glyceryltrinitrate (isolated rat aorta [2]): superior
